Test results reported in ChEMBL document CHEMBL4680246, “Design, synthesis and biological evaluation of novel O-carbamoyl ferulamide derivatives as multi-target-directed ligands for the treatment of Alzheimer's disease” (Eur J Med Chem, 2020).
pIC50: −log10 of the molar value. The source made the active and inactive calls. No cut-off for these calls is given here.

What was measured:
[1] = biological target: T1, Amine oxidase [flavin-containing] A (Homo sapiens, UniProt P21397); assay: Inhibition of recombinant human MAO-A
T1 sequence (P21397 whole entry): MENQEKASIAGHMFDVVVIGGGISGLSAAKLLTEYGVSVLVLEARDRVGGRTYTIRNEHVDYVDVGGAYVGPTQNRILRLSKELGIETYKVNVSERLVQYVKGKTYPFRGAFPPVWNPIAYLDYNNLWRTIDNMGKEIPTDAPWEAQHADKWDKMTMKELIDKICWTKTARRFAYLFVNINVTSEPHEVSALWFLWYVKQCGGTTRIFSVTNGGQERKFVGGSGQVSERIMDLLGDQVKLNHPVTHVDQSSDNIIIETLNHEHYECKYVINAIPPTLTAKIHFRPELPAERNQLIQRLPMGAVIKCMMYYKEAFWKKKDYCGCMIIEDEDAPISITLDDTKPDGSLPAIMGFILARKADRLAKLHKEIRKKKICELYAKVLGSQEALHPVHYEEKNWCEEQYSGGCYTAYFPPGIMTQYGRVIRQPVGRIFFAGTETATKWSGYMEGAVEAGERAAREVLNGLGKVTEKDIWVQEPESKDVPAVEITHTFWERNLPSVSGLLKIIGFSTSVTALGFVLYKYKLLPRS

Acetylcholinesterase [2] = biological target: Acetylcholinesterase (Electrophorus electricus, UniProt O42275); assay: Inhibition of Electrophorus electricus AChE using acetylcholine iodide as substrate incubated for 15 mins by Ellman's method
Acetylcholinesterase (Electrophorus electricus, UniProt O42275), sequence (O42275 whole entry): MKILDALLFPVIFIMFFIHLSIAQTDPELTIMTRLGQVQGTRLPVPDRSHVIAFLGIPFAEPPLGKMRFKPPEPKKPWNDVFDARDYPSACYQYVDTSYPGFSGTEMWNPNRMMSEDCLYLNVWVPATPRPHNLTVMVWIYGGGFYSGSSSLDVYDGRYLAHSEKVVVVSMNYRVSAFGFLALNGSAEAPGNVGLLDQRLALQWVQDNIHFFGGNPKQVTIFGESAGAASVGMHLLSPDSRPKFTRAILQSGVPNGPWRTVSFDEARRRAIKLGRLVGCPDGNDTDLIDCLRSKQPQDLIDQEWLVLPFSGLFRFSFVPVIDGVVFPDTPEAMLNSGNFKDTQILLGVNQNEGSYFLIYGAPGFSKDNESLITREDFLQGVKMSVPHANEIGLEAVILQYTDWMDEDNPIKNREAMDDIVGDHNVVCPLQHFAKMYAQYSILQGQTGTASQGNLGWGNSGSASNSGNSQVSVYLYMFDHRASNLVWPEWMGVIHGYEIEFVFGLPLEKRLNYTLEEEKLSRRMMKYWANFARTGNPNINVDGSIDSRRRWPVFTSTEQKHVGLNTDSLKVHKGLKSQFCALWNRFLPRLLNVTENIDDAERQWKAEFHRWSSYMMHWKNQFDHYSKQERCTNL

Acetylcholinesterase [3] = biological target: Acetylcholinesterase (Homo sapiens, UniProt P22303); assay: Inhibition of human erythrocytes AChE using acetylcholine iodide as substrate incubated for 15 mins by Ellman's method
Acetylcholinesterase (Homo sapiens, UniProt P22303), sequence (P22303 whole entry): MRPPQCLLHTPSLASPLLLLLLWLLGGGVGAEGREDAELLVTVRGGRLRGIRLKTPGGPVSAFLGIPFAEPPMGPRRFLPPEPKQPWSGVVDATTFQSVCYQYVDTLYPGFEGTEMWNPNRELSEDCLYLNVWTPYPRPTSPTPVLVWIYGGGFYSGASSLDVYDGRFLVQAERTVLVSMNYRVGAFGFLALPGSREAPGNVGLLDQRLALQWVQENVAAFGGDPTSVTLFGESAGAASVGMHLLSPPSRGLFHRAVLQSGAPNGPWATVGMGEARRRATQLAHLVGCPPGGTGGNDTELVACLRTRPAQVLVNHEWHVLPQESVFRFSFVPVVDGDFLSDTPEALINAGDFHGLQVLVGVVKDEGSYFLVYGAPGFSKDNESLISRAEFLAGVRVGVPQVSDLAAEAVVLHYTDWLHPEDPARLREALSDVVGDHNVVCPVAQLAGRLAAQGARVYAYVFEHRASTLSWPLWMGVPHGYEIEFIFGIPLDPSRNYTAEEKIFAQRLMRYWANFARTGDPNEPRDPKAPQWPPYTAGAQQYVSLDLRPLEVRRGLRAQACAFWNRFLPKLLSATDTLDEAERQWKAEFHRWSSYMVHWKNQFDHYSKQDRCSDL

[4] = biological target: T2, Amine oxidase [flavin-containing] B (Homo sapiens, UniProt P27338); assay: Inhibition of recombinant human MAO-B
T2 sequence (P27338 whole entry): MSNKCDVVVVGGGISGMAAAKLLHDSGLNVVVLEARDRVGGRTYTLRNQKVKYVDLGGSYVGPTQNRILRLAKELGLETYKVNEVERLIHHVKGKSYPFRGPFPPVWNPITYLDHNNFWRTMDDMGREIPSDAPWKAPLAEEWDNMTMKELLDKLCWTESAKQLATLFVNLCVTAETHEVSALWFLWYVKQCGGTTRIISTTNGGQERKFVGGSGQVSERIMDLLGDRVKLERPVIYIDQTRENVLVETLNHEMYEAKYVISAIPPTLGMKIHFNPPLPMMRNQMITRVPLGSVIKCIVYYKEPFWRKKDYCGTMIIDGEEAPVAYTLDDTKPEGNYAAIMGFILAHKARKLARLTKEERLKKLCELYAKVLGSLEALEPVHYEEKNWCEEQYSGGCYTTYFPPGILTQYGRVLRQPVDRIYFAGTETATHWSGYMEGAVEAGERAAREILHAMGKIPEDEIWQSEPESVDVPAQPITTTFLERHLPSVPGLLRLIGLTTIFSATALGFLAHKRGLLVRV

Cholinesterase [5] = biological target: Cholinesterase (Equus caballus, UniProt P81908); assay: Inhibition of equine serum BuChE using BTC as substrate after 15 mins by Ellman's method
Cholinesterase (Equus caballus, UniProt P81908), sequence (P81908 whole entry): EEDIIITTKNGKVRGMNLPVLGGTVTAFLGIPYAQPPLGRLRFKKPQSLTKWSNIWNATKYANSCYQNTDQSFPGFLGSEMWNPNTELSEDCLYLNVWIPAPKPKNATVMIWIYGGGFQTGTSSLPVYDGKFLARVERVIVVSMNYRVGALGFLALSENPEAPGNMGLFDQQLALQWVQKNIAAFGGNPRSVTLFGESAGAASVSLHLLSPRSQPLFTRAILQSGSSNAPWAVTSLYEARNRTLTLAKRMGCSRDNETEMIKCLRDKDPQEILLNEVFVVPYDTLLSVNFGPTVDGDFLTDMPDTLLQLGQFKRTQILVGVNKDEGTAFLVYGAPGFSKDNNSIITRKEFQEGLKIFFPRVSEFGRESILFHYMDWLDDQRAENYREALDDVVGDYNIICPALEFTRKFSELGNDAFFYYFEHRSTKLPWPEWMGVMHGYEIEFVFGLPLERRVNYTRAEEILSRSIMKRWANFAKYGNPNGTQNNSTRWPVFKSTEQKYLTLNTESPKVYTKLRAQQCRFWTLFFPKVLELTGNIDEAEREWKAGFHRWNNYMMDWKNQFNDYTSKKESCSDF

Cholinesterase [6] = biological target: T3, Cholinesterase (Homo sapiens, UniProt P06276); assay: Inhibition of human serum BuChE using acetylcholine iodide as substrate incubated for 15 mins by Ellman's method
T3 sequence (P06276 whole entry): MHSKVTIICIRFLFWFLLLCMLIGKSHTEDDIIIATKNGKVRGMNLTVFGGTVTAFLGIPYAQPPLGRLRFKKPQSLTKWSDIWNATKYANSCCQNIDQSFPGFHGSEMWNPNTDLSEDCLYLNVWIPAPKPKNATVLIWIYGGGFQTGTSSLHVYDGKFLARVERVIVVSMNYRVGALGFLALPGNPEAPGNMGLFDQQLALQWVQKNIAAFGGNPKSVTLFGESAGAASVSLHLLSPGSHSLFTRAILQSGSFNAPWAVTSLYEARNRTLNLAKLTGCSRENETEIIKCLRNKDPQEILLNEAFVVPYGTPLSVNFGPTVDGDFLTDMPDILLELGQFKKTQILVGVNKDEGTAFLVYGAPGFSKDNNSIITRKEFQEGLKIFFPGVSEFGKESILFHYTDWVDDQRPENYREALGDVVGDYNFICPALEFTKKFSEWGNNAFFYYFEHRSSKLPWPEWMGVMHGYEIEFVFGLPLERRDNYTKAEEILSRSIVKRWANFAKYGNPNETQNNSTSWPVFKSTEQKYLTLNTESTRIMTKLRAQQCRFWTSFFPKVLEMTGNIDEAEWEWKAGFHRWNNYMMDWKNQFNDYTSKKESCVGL

[7] = Selectivity index, ratio of IC50 for Electrophorus electricus AChE to IC50 for equine serum BuChE
Homo sapiens [8] = species: Homo sapiens; assay: Selectivity index, ratio of IC50 for human erythrocytes Ache to IC50 for human serum BuChe
Homo sapiens [9] = species: Homo sapiens; assay: Selectivity index, ratio of IC50 for recombinant human MAO-A to IC50 for recombinant human MAO-B
[10] = biological target: Amyloid-beta precursor protein (Homo sapiens) (UniProt P05067); assay: Inhibition of self-induced Amyloid beta (1 to 42 residues) (unknown origin) aggregation at 25 uM measured after 24 hrs by thioflavin T-based fluorimetric assay relative to control
Amyloid-beta precursor protein (Homo sapiens), sequence (P05067 whole entry, the tested form may be a part): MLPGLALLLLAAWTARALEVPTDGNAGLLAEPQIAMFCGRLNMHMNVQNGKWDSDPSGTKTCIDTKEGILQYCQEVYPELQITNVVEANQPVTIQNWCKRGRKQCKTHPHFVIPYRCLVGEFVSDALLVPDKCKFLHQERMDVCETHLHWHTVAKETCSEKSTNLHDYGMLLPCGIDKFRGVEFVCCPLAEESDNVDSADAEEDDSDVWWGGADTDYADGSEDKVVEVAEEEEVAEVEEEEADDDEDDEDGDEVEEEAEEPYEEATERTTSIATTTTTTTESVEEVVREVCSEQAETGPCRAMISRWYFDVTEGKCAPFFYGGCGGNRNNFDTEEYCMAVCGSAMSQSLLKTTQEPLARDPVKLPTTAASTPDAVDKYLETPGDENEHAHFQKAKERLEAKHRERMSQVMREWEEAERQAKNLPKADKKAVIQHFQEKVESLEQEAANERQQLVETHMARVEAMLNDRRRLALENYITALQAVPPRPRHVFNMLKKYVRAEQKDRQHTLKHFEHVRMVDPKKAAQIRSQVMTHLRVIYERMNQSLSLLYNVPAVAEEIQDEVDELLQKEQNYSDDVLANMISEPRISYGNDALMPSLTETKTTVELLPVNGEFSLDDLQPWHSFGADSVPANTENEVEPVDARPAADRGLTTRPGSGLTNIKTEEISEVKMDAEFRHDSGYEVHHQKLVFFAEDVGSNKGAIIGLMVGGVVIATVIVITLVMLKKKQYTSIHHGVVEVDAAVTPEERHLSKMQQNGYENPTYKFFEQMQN

Danio rerio [11] = species: Danio rerio; assay: Antialzheimer activity in AlCl3-induced Zebrafish model of Alzheimer's disease assessed as motility distance at 8 uM (reference value: 5346 mm); format: functional
Cholinesterase [12] = biological target: T3, Cholinesterase; assay: Inhibition of human serum BuChE assessed as residual activity at 0.1 times IC50 using acetylcholine iodide as substrate measured after dilution by Ellman's method relative to control
Danio rerio [13] = species: Danio rerio; assay: Antialzheimer activity in AlCl3-induced Zebrafish model of Alzheimer's disease assessed as change in motility speed at 8 uM (reference value: 1.08 mm/s); format: functional
Danio rerio [14] = species: Danio rerio; assay: Antialzheimer activity in AlCl3-induced Zebrafish model of Alzheimer's disease assessed as increase in motility distance at 8 uM relative to control; format: functional
Danio rerio [15] = species: Danio rerio; assay: Antialzheimer activity in AlCl3-induced Zebrafish model of Alzheimer's disease assessed as increase in motility speed at 8 uM relative to control; format: functional
[16] = biological target: Cholinesterase (Equus caballus) (UniProt P81908); assay: Inhibition of equine serum BuChE at 25 uM using BTC as substrate after 15 mins by Ellman's method relative to control
Cholinesterase (Equus caballus), sequence (P81908 whole entry): as the sequence (P81908 whole entry) above

Mus musculus = assay: Improvement in cognitive impairment in scopolamine-induced mouse model of amnesia assessed as increase in spontaneous alteration at 10 mg/kg by Y-maze test; format: functional, organism-based

| Structure (SMILES) | pIC50 [1] | pIC50 (Acetylcholinesterase [2]) | pIC50 (Acetylcholinesterase [3]) | pIC50 [4] | pIC50 (Cholinesterase [5]) | pIC50 (Cholinesterase [6]) | Ratio IC50 [7] | Ratio IC50 (Homo sapiens [8]) | Ratio IC50 (Homo sapiens [9]) | inhibition [10] [%] | Activity (Danio rerio [11]) [mm] | Activity (Cholinesterase [12]) [%] | Activity (Danio rerio [13]) | Efficacy (Danio rerio [14]) [%] | Efficacy (Danio rerio [15]) [%] | inhibition [16] [%] | Activity (Mus musculus) |
| --- | --- | --- | --- | --- | --- | --- | --- | --- | --- | --- | --- | --- | --- | --- | --- | --- | --- |
| CCN(Cc1ccccc1)C(=O)/C=C/c1ccc(OC(=O)N(c2ccccc2)c2ccccc2)c(OC)c1 | 4.61 | 4.72 | 4.55 | 4.80 | 4.61 | 4.60 | 0.77 | 1.1 | 1.5 | – | – | – | – | – | – | – | – |
| CCN(C)C(=O)Oc1ccc(/C=C/C(=O)N(CC)Cc2ccccc2)cc1OC | 4.85 | 4.71 | 4.68 | 5.02 | 5.82 | 5.42 | 13 | 5.4 | 1.5 | 50.7 | – | – | – | – | – | – | – |
| COc1cc(/C=C/C(=O)O)ccc1O [FERULATE] | – | < 4.00 | < 4.00 | – | < 4.00 | < 4.00 | – | – | – | – | – | – | – | – | – | – | – |
| CCN(C)C(=O)Oc1ccc(/C=C/C(=O)N2CCN(Cc3ccccc3)CC2)cc1 | 5.01 | 4.59 | 4.83 | 4.67 | 4.69 | 4.53 | 1.3 | 0.5 | 0.5 | – | – | – | – | – | – | – | – |
| CCN(C)C(=O)Oc1ccc(/C=C/C(=O)N2CCC(Cc3ccccc3)CC2)cc1 | 4.25 | 4.66 | 4.57 | 5.11 | 5.28 | 5.25 | 4.2 | 4.8 | 7.3 | 48.1 | – | – | – | – | – | – | – |
| COc1cc(/C=C/C(=O)N2CCc3ccccc3C2)ccc1OC(=O)N(C)OC | 4.65 | 4.93 | 4.91 | 5.17 | 4.53 | 4.79 | 0.4 | 0.76 | 3.3 | – | – | – | – | – | – | – | – |
| CCN(CC)C(=O)Oc1ccc(/C=C/C(=O)N2CCC(Cc3ccccc3)CC2)cc1OC | 5.11 | 4.59 | 4.71 | 5.29 | 5.55 | 5.29 | 9.1 | 3.9 | 1.5 | 49.7 | – | – | – | – | – | – | – |
| COc1cc(/C=C/C(=O)N2CCC(Cc3ccccc3)CC2)ccc1OC(=O)N(C)C | 4.79 | 4.72 | 4.78 | 5.05 | 5.89 | 5.12 | 14.5 | 2.2 | 1.8 | 56.6 | – | – | – | – | – | – | – |
| COc1cc2c(cc1OC)C(=O)C(CC1CCN(Cc3ccccc3)CC1)C2 (stereo not given) [DONEPEZIL] | – | – | – | – | – | – | – | – | – | – | 6477 | 63.2 | <=1.88 millimeter/sec | 57.9 | 64.5 | – | – |
| CCN(CC)C(=O)Oc1ccc(/C=C/C(=O)N2CCN(Cc3ccccc3)CC2)cc1OC | 4.71 | 4.72 | 4.77 | 4.63 | 5.06 | 4.97 | 2.2 | 1.6 | 0.8 | – | – | – | – | – | – | – | – |
| COc1cc(/C=C/C(=O)N2CCN(Cc3ccccc3)CC2)ccc1OC(=O)N(c1ccccc1)c1ccccc1 | 4.83 | 4.05 | 4.54 | 4.50 | < 4.00 | 4.65 | – | 1.3 | 0.5 | – | – | – | – | – | – | 9.7 | – |
| COc1cc(/C=C/C(=O)N2CCN(Cc3ccccc3)CC2)ccc1OC(=O)N(C)C | 4.41 | 4.64 | 4.63 | 4.78 | 4.92 | 4.85 | 1.9 | 1.7 | 2.3 | – | – | – | – | – | – | – | – |
| COc1cc(/C=C/C(=O)N2CCc3ccccc3C2)ccc1OC(=O)N(C)C | 4.45 | 4.57 | 4.75 | 5.01 | 5.43 | 5.02 | 7.2 | 1.9 | 3.6 | – | – | – | – | – | – | – | – |
| COc1cc(/C=C/C(=O)N2CCc3ccccc3C2)ccc1OC(=O)N(c1ccccc1)c1ccccc1 | 4.77 | 4.03 | 4.52 | 4.91 | 4.62 | 4.59 | – | 1.2 | 1.4 | – | – | – | – | – | – | – | – |
| COc1cc(/C=C/C(=O)N2CCCCC2)ccc1OC(=O)N(c1ccccc1)c1ccccc1 | 4.34 | 4.66 | 4.57 | 4.66 | 4.01 | 4.64 | – | 1.2 | 2.1 | – | – | – | – | – | – | 20 | – |
| CCN(C)C(=O)Oc1ccc(/C=C/C(=O)N2CCc3ccccc3C2)cc1 | 4.01 | 4.75 | 5.17 | 5.08 | 5.42 | 5.43 | 4.7 | 1.8 | 11.7 | 52.9 | – | – | – | – | – | – | – |
| CCN(C)C(=O)Oc1ccc(/C=C/C(=O)N2CCCCC2)cc1OC | 4.53 | 4.82 | 4.97 | 4.79 | 4.71 | 4.90 | 0.78 | 0.85 | 1.8 | – | – | – | – | – | – | – | – |
| CCN(CC)C(=O)Oc1ccc(/C=C/C(=O)N2CCc3ccccc3C2)cc1OC | 5.10 | 4.87 | 4.80 | 5.18 | 5.70 | 5.11 | 6.8 | 2 | 1.2 | – | – | – | – | – | – | – | – |
| CCN(C)C(=O)Oc1ccc(/C=C/C(=O)N2CCC(Cc3ccccc3)CC2)cc1OC | 5.10 | 4.82 | 4.76 | 5.12 | 5.41 | 5.19 | 3.9 | 2.7 | 1.1 | 53.7 | – | – | – | – | – | – | – |
| CC(=O)OCC[N+](C)(C)C | – | – | – | – | – | – | – | – | – | – | – | – | – | – | – | – | inactive |
| COc1cc(/C=C/C(=O)N2CCCCC2)ccc1OC(=O)N(C)C | 4.48 | 4.76 | 5.04 | 4.49 | 4.58 | 4.88 | 0.67 | 0.69 | 1 | – | – | – | – | – | – | – | – |
| COc1cc(/C=C/C(=O)N2CCC(Cc3ccccc3)CC2)ccc1OC(=O)N(c1ccccc1)c1ccccc1 | 4.46 | 4.05 | 4.49 | 4.88 | < 4.00 | 4.44 | – | 0.9 | 2.6 | – | – | – | – | – | – | 6.6 | – |
| CCN(CC)C(=O)/C=C/c1ccc(OC(=O)N(C)C)c(OC)c1 | 4.51 | 4.75 | 4.88 | 4.50 | 4.72 | 4.82 | 0.93 | 0.86 | 0.97 | – | – | – | – | – | – | – | – |
